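96-well plates; 48 h exposure; 5 concentrations. Endpoints by linear interpolation between flanking doses. Not reached: highest tested concentration assigned. GI50: concentration for 50% inhibition of growth. The concentration for full growth arrest is given as TGI.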
Columns and labels:
Assay in all cases: DTP human tumour cell line panel, 48 h
[1] = test system: HCC-2998 colon
[2] = test system: OVCAR-4 ovarian
[3] = test system: OVCAR-5 ovarian
[4] = test system: SF-295 CNS
[5] = test system: SK-OV-3 ovarian
[6] = test system: SW-620 colon
[7] = test system: UACC-257 melanoma
[8] = test system: K-562 leukemia
[9] = test system: MOLT-4 leukemia
[10] = test system: OVCAR-3 ovarian

| SMILES | GI50 [1] [µM] | TGI [1] [µM] | GI50 [2] [µM] | TGI [2] [µM] | GI50 [3] [µM] | TGI [3] [µM] | GI50 [4] [µM] | TGI [4] [µM] | GI50 [5] [µM] | TGI [5] [µM] | GI50 [6] [µM] | TGI [6] [µM] | GI50 [7] [µM] | TGI [7] [µM] | TGI [8] [µM] | TGI [9] [µM] | TGI [10] [µM] | GI50 [8] [µM] | GI50 [10] [µM] | GI50 [9] [µM] |
| --- | --- | --- | --- | --- | --- | --- | --- | --- | --- | --- | --- | --- | --- | --- | --- | --- | --- | --- | --- | --- |
| CCCCn1c(-c2ccc(C(=O)O/N=C(\N)c3ccc4c(c3)OCO4)cc2)nc(-c2ccccc2)c1-c1ccccc1 | 3.13 | 22.5 | 3.5 | > 100 | 4.77 | > 100 | 2.03 | 4.38 | 7.13 | > 100 | 3.81 | > 100 | 6.43 | > 100 |  |  |  |  |  |  |
| COC(=O)C1(C(=O)OC)CC(=O)c2cc3c(cc2-c2c(cc(OC)c(OC)c2OC)C1)OCO3 |  | > 211 |  |  |  | > 211 |  | > 211 |  | > 211 |  | > 211 |  | > 211 | > 211 | > 211 | > 211 |  |  |  |
| CC(C)CCC1(CCN)C(=O)NC(=O)NC1=O |  |  |  | > 100 |  | > 100 |  | > 100 |  | > 100 |  | > 100 |  | > 100 | > 100 | 72.2 | > 100 |  |  |  |
| c1c[nH]c(CN2CCOCC2)n1 |  |  |  | > 100 |  | > 100 |  | > 100 |  | > 100 |  | > 100 |  | > 100 | > 100 | > 100 | > 100 |  |  |  |
| Cn1c2c(c3ccccc31)CCN(CCN1CCN(c3cccc(Cl)c3)CC1)C2=O |  |  |  |  |  |  |  |  |  | > 100 |  | > 100 |  |  | > 100 | > 100 |  |  |  |  |
| Oc1ccccc1-c1nn(CNc2ccccc2Cl)c(=S)o1 |  |  |  |  | 37.2 | > 100 | 65.2 | > 100 | > 100 | > 100 | 41.9 | > 100 | > 100 | > 100 | > 100 |  | > 100 | > 100 | 89.7 |  |
| O=S(=O)(NCCCNc1nccc(-c2c(-c3ccc(F)cc3)nc3sccn23)n1)c1ccc2ccccc2c1 | 3.37 | 9.61 | 5.99 | > 100 | > 100 | > 100 | 6.86 | > 100 | > 100 | > 100 | 6.4 | > 100 | > 100 | > 100 |  | > 100 |  |  |  | 4.52 |
| O=c1cc(/C=C/c2ccccc2)[nH]c2cc3c(cc12)OCO3 |  | 7.47 |  | 30.2 |  | 14.2 | 3 | 13.7 |  | 15.9 |  | 19.2 |  | 97.7 |  | 13.7 | 5.82 |  | 2.22 |  |
| c1ccc2[nH]c(-c3ccc(Nc4nc(N5CCCCC5)nc(N5CCOCC5)n4)cc3)nc2c1 | 3.74 | > 100 | 3.98 | 25.4 | 4.06 | 29.3 | 1.85 | 4.6 | 2.37 | 5.43 | 2.34 | 5.87 |  |  |  | 7.89 | 6.19 |  | 2.4 | 2.73 |
| CC(=O)OCC1OC(N2C(=O)C(=O)c3ccccc32)C(OC(C)=O)C(OC(C)=O)C1OC(C)=O (centres undefined) |  | > 100 |  | > 100 |  |  |  | > 100 |  | > 100 |  | > 100 |  | > 100 | > 100 | > 100 | > 100 |  |  |  |
| CSc1nnc(COc2ccc(Cl)cc2)o1 |  |  |  | > 100 |  | > 100 |  | > 100 |  | > 100 |  | > 100 |  | > 100 |  |  | > 100 |  |  |  |
| CC(=O)c1ccc(O)c(CN(C2CCCCC2)C2CCCCC2)c1O |  |  |  | > 100 |  | > 100 |  | > 100 |  | > 100 |  | > 100 |  | > 100 | > 100 | > 100 | > 100 |  |  |  |
| c1ccc(N2N=C(c3ccco3)CC2c2ccco2)cc1 (centres undefined) |  |  |  | > 100 |  | > 100 |  | > 100 |  |  |  | > 100 |  |  | > 100 | 52.4 | > 100 |  |  |  |
| C=CC(OCC)(OCC)OCC |  | > 100 |  | > 100 |  | > 100 |  | > 100 |  | > 100 |  |  |  | > 100 | > 100 | > 100 | > 100 |  |  |  |
| CCCCCCCCCCCCCCCC[N+]1(C)CCOCC1 | 1.21 | 2.75 |  |  | 1.14 | 2.89 | 1.8 | 6.29 | 2.2 | 7.36 | 2.05 | 10.4 | 4 | 17.2 |  | 3.69 | 3.61 |  | 1.56 | 1.6 |
| O=c1oc2ccc(I)cc2c(=O)n1-c1ccc(Cl)cc1F | 3.18 | 12.9 | 1.68 | 19 | 3.96 | 74.1 | 1.8 | 3.69 |  |  | 2.02 | 88.2 | 0.526 | 6.45 | > 100 | 6.81 | 12 | 0.658 | 0.974 | 2.24 |
| O=[N+]([O-])c1ccc(Sc2c3ccccc3nc3cc(Cl)ccc23)cc1 |  |  | > 100 | > 100 | > 100 | > 100 | > 100 | > 100 | > 100 | > 100 | > 100 | > 100 | > 100 | > 100 | > 100 | > 100 | > 100 | > 100 | > 100 |  |
| Nc1ncnc2c1ncn2CC(O)CO (centres undefined) |  | > 100 |  | > 100 |  |  |  | > 100 |  | > 100 |  | > 100 |  | > 100 | > 100 | > 100 | > 100 |  |  |  |
| CCCCN(CCCC)C(=O)/C(CC(=O)c1cccc2ccccc12)=N\NC(=O)c1cc2ccccc2cc1O |  | 43.8 |  | 70.5 |  | 80.5 |  | 92.7 |  |  |  | > 100 |  | 52.8 |  | 42.9 | 53.3 |  |  |  |
| CCNC(=O)COc1ccc(Cl)cc1Cl |  |  |  |  |  | > 100 |  | > 100 |  | > 100 |  | > 100 |  | > 100 | > 100 | > 100 | > 100 |  |  |  |

— PubChem BioAssay (NCI)
